The values below come from paper PMC9618804, “CXCR1 and its downstream NF-κB inflammation signaling pathway as a key target of Guanxinning injection for myocardial ischemia/reperfusion injury” (Frontiers in Immunology, 2022).

In one test the target is T1, hCXCR1 (Homo sapiens, UniProt P25024).
T1 construct: gene CXCR1; native full-length receptor in freeze-thaw lysate supernatant of human AC-16 cardiomyocytes; detected by Western blot
T1 sequence (P25024 1-350): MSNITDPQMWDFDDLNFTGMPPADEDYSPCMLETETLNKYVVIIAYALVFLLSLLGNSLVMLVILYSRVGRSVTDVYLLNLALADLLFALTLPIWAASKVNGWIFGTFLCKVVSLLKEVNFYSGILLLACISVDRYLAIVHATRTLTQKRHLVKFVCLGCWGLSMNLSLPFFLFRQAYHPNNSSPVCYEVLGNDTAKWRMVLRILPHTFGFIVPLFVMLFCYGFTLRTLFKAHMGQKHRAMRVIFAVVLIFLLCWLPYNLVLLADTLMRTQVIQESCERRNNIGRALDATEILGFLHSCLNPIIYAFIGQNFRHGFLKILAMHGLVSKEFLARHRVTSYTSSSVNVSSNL
The experiment in a line: CETSA in cell lysate, Western blot. It is filed as biochemical. The note with it: AC-16 lysate; 20 uM DSS, 30 min at room temperature, 3 min at 37-73 C. On the technique in general: A western blot detects proteins with antibodies after separation by electrophoresis.

The next test has as its target T2, mCXCR1 (Mus musculus, UniProt Q810W6).
T2 construct: gene Cxcr1; native full-length receptor in freeze-thaw lysate supernatant of mouse HL-1 cardiomyocytes; detected by Western blot (anti-CXCR1 bs-1009R)
T2 sequence (Q810W6 1-351): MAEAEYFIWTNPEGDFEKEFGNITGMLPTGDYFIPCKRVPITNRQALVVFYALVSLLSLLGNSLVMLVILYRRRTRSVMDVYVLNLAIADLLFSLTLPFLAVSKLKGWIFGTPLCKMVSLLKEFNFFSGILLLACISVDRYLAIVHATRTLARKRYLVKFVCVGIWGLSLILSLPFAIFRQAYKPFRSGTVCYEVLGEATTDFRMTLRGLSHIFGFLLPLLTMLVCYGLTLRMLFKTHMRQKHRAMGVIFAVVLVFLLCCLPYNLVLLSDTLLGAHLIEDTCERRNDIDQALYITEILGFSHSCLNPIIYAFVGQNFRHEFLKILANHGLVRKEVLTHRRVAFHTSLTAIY
The experiment in a line: CETSA and isothermal dose-response (ITDRF-CETSA) in cell lysate, Western blot. The format is biochemical. The note with it: HL-1 lysate; 20 uM DSS, 30 min at room temperature, 3 min at 37-73 C; ITDRF 0-20 uM at 61 C.

On to `O=C(O)[C@H](O)Cc1ccc(O)c(O)c1` [DSS, Danshensu], for which the “thermal stabilization (CETSA)” value was “DSS also binds to hCXCR1 to increase its thermal stability” on hCXCR1; “this thermal stabilization between Danshensu and mCXCR1 was dose dependent from ITDRFCETSA” on mCXCR1.
